Data published in patent US10800792B2, “Inhibitors of Bruton's tyrosine kinase and method of their use” (JANSSEN PHARMACEUTICA NV, priority 2015, dated 2020).

Biological target: unphosphorylated-BTK kinase domain (UP-BTK), GST-tagged human BTK (389-659aa) (Homo sapiens (Human), UniProt Q06187)
Assay: BTK kinase Lanthascreen binding assay
Conditions: pIC50 = negative log of the IC50 in molar; for IC50: read-out: BTK_I_binding pIC50 (converted)
Outline: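 Measures how well compounds compete with a fluorescence-labelled tracer for binding to BTK in its unphosphorylated state. IC50 values were fitted and expressed as pIC50 (negative logarithm of the molar IC50).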

[1] = unphosphorylated-BTK kinase domain, 50 nM Tracer 236, 60 minutes
[2] = Lanthascreen tracer competition, 60 minutes incubation

Sequence of unphosphorylated-BTK kinase domain (UP-BTK), GST-tagged human BTK (389-659aa) (Q06187 389-659): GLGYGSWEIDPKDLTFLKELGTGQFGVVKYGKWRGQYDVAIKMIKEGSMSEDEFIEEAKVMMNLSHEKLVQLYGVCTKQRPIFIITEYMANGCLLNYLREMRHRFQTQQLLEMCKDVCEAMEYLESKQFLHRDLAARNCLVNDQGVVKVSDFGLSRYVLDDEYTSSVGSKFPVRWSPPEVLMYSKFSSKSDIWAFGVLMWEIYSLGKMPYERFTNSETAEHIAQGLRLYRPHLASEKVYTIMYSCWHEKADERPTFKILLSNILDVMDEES

SMILES | BTK_I_binding pIC50 [1] | also measured
C=CC(=O)N1CCC[C@@H](NC(=O)c2sc3nccc4c3c2NC(=O)N4c2cccc(-c3ccccc3C(F)(F)F)c2)C1 [Example 563, (R)—N-(1-Acryloylpiperidin-3-yl)-4-oxo-5-(2′-(trifluoromethyl)-[1,1′-biphenyl]-3-yl)-4,5-dihydro-3H-1-thia-3,5,8-triazaacenaphthylene-2-carboxamide] | 7.0 | 
C=CC(=O)N1CCC[C@@H](NC(=O)c2sc3nccc4c3c2NC(=O)N4c2cccc(C(C)=O)c2)C1 [Example 566, (R)-5-(3-Acetylphenyl)-N-(1-acryloylpiperidin-3-yl)-4-oxo-4,5-dihydro-3H-1-thia-3,5,8-triazaacenaphthylene-2-carboxamide] | 6.6 | 
C=CC(=O)N1CC[C@@H](NC(=O)c2sc3nccc4c3c2NC(=O)N4c2ccnc(-c3ccccc3)c2)C1 [Example 567, (R)—N-(1-Acryloylpyrrolidin-3-yl)-4-oxo-5-(2-phenylpyridin-4-yl)-4,5-dihydro-3H-1-thia-3,5,8-triazaacenaphthylene-2-carboxamide] | 7.4 | 
C=CC(=O)N1CCC[C@@H](NC(=O)c2sc3nccc4c3c2NC(=O)N4c2cccc(OC(F)(F)F)c2)C1 [Example 568, (R)—N-(1-Acryloylpiperidin-3-yl)-4-oxo-5-(3-(trifluoromethoxy)phenyl)-4,5-dihydro-3H-1-thia-3,5,8-triazaacenaphthylene-2-carboxamide] | 7.4 | 
CN(C)C/C=C/C(=O)N1CC[C@@H](NC(=O)c2sc3nccc4c3c2NC(=O)N4c2cccc(-c3ccccc3)c2)C1 [Example 570, (R,E)-5-([1,1′-Biphenyl]-3-yl)-N-(1-(4-(dimethylamino)but-2-enoyl)pyrrolidin-3-yl)-4-oxo-4,5-dihydro-3H-1-thia-3,5,8-triazaacenaphthylene-2-carboxamide] |  | IC50 [1]: 63.1 nM
CN(C)CC(=O)N1CCC[C@@H](NC(=O)c2sc3nccc4c3c2NC(=O)N4c2ccc(Oc3ccccc3)c(Cl)c2)C1 [Example 572, (R)-5-(3-Chloro-4-phenoxyphenyl)-N-(1-(2-(dimethylamino)acetyl)piperidin-3-yl)-4-oxo-4,5-dihydro-3H-1-thia-3,5,8-triazaacenaphthylene-2-carboxamide] | 7.1 | 
CN(C)C/C=C/C(=O)N1CCC[C@@H](NC(=O)c2sc3nccc4c3c2NC(=O)N4c2cccc(-c3ccccc3)c2)C1 [Example 573, (R,E)-5-([1,1′-Biphenyl]-3-yl)-N-(1-(4-(dimethylamino)but-2-enoyl)piperidin-3-yl)-4-oxo-4,5-dihydro-3H-1-thia-3,5,8-triazaacenaphthylene-2-carboxamide] | 6.6 | 
C=CC(=O)N1CC[C@@H](NC(=O)c2sc3nccc4c3c2NC(=O)N4c2ccc(Oc3ccccc3)cc2)[C@@H](O)C1 [Example 574] |  | IC50 [1]: 158 nM
CNCC(=O)N1CCC[C@@H](NC(=O)c2sc3nccc4c3c2NC(=O)N4c2ccc(Oc3ccccc3)c(Cl)c2)C1 [Example 575, (R)-5-(3-Chloro-4-phenoxyphenyl)-N-(1-(2-(methylamino)acetyl)piperidin-3-yl)-4-oxo-4,5-dihydro-3H-1-thia-3,5,8-triazaacenaphthylene-2-carboxamide] | 7.3 | 
COCC(=O)N1CCC[C@@H](NC(=O)c2sc3nccc4c3c2NC(=O)N4c2ccc(Oc3ccccc3)cc2)C1 [Example 576, (R)—N-(1-(2-Methoxyacetyl)piperidin-3-yl)-4-oxo-5-(4-phenoxyphenyl)-4,5-dihydro-3H-1-thia-3,5,8-triazaacenaphthylene-2-carboxamide] | 7.3 | 
O=C1CCC(NC(=O)c2sc3nccc4c3c2NC(=O)N4c2ccc(Oc3ccccc3)cc2)CN1 (stereo not shown) [Example 578, 4-Oxo-N-(6-oxopiperidin-3-yl)-5-(4-phenoxyphenyl)-4,5-dihydro-3H-1-thia-3,5,8-triazaacenaphthylene-2-carboxamide] | 6.9 | 
O=C(N[C@H]1CNC[C@@H]1F)c1sc2nccc3c2c1NC(=O)N3c1ccc(Oc2ccccc2)cc1 [Example 579, N-((3S,4S)-4-Fluoropyrrolidin-3-yl)-4-oxo-5-(4-phenoxyphenyl)-4,5-dihydro-3H-1-thia-3,5,8-triazaacenaphthylene-2-carboxamide] | 6.9 | 
Cc1ccc(-c2cccc(N3C(=O)Nc4c(C(=O)N[C@@H]5CCCNC5)sc5nccc3c45)c2)cc1 [Example 580, (R)-5-(4′-Methyl-[1,1′-biphenyl]-3-yl)-4-oxo-N-(piperidin-3-yl)-4,5-dihydro-3H-1-thia-3,5,8-triazaacenaphthylene-2-carboxamide] | 6.9 | 
O=C(N[C@@H]1CCCNC1)c1sc2nccc3c2c1NC(=O)N3c1ccc(Oc2ccccc2)c(Cl)c1 [Example 581, (R)-5-(3-Chloro-4-phenoxyphenyl)-4-oxo-N-(piperidin-3-yl)-4,5-dihydro-3H-1-thia-3,5,8-triazaacenaphthylene-2-carboxamide] | 6.8 | 
CC(=O)N1CCC[C@@H](NC(=O)c2sc3nccc4c3c2NC(=O)N4c2ccc(Oc3ccccc3)c(Cl)c2)C1 [Example 582, (R)—N-(1-Acetylpiperidin-3-yl)-5-(3-chloro-4-phenoxyphenyl)-4-oxo-4,5-dihydro-3H-1-thia-3,5,8-triazaacenaphthylene-2-carboxamide] | 6.7 | 
O=C(N[C@@H]1CCCNC1)c1sc2nccc3c2c1NC(=O)N3c1ccnc(-c2ccccc2)c1 [Example 585, (R)-4-Oxo-5-(2-phenylpyridin-4-yl)-N-(piperidin-3-yl)-4,5-dihydro-3H-1-thia-3,5,8-triazaacenaphthylene-2-carboxamide] | 6.5 | 
O=C(N[C@H]1CNC[C@H](O)C1)c1sc2nccc3c2c1NC(=O)N3c1ccc(Oc2ccccc2)cc1 [Example 586, N-((3R,5R)-5-Hydroxypiperidin-3-yl)-4-oxo-5-(4-phenoxyphenyl)-4,5-dihydro-3H-1-thia-3,5,8-triazaacenaphthylene-2-carboxamide] |  | IC50 [1]: 251 nM
O=C(N[C@@H]1CCCN(C(=O)/C=C/CO)C1)c1sc2nccc3c2c1NC(=O)N3c1ccc(Oc2ccccc2)cc1 [Example 590, (R,E)-N-(1-(4-Hydroxybut-2-enoyl)piperidin-3-yl)-4-oxo-5-(4-phenoxyphenyl)-4,5-dihydro-3H-1-thia-3,5,8-triazaacenaphthylene-2-carboxamide] |  | BTK_I_binding pIC50 [2]: 7.5
C=CC(=O)N1CCC[C@@H](NC(=O)c2sc3nccc4c3c2NC(=O)N4c2ccnc(C3CCC3)c2)C1 [Example 591, (R)—N-(1-Acryloylpiperidin-3-yl)-5-(2-cyclobutylpyridin-4-yl)-4-oxo-4,5-dihydro-3H-1-thia-3,5,8-triazaacenaphthylene-2-carboxamide] |  | BTK_I_binding pIC50 [2]: 7.5

Second part, led by results:

BTK_I_binding pIC50 [1] | SMILES | also measured
7.2 | Cc1cc(Oc2ccccc2)ccc1N1C(=O)Nc2c(C(=O)N[C@@H]3CCCN(C(=O)[C@H](C)CO)C3)sc3nccc1c23 [Example 564, N—((R)-1-((R)-3-Hydroxy-2-methylpropanoyl)piperidin-3-yl)-5-(2-methyl-4-phenoxyphenyl)-4-oxo-4,5-dihydro-3H-1-thia-3,5,8-triazaacenaphthylene-2-carboxamide] | 
7.0 | C=CC(=O)N1CCC[C@@H](NC(=O)c2sc3nccc4c3c2NC(=O)N4c2cccc(OC(C)C)c2)C1 [Example 565, (R)—N-(1-Acryloylpiperidin-3-yl)-5-(3-isopropoxyphenyl)-4-oxo-4,5-dihydro-3H-1-thia-3,5,8-triazaacenaphthylene-2-carboxamide] | 
7.0 | C=CC(=O)N1CCC[C@@H](NC(=O)c2sc3nccc4c3c2NC(=O)N4c2cccc(C3CC3)c2)C1 [Example 569, (R)—N-(1-Acryloylpiperidin-3-yl)-5-(3-cyclopropylphenyl)-4-oxo-4,5-dihydro-3H-1-thia-3,5,8-triazaacenaphthylene-2-carboxamide] | 
7.0 | COC[C@@H](C)C(=O)N1CCC[C@@H](NC(=O)c2sc3nccc4c3c2NC(=O)N4c2ccc(Oc3ccccc3)cc2C)C1 [Example 571, N—((R)-1-((R)-3-Methoxy-2-methylpropanoyl)piperidin-3-yl)-5-(2-methyl-4-phenoxyphenyl)-4-oxo-4,5-dihydro-3H-1-thia-3,5,8-triazaacenaphthylene-2-carboxamide] | 
7.2 | O=C(N[C@@H]1CCNC1)c1sc2nccc3c2c1NC(=O)N3c1ccc(Oc2ccccc2)c(Cl)c1 [Example 577, (R)-5-(3-Chloro-4-phenoxyphenyl)-4-oxo-N-(pyrrolidin-3-yl)-4,5-dihydro-3H-1-thia-3,5,8-triazaacenaphthylene-2-carboxamide] | 
6.7 | Cc1cc(N2C(=O)Nc3c(C(=O)N[C@@H]4CCCNC4)sc4nccc2c34)ccc1Oc1ccccc1 [Example 583, (R)-5-(3-Methyl-4-phenoxyphenyl)-4-oxo-N-(piperidin-3-yl)-4,5-dihydro-3H-1-thia-3,5,8-triazaacenaphthylene-2-carboxamide] | 
6.6 | C=CC(=O)N1CCC[C@@H](NC(=O)c2sc3nccc4c3c2NC(=O)N4c2ccc(C)c(Cl)c2)C1 [Example 584, (R)—N-(1-Acryloylpiperidin-3-yl)-5-(3-chloro-4-methylphenyl)-4-oxo-4,5-dihydro-3H-1-thia-3,5,8-triazaacenaphthylene-2-carboxamide] | 
6.5 | CN1CC[C@@H](NC(=O)c2sc3nccc4c3c2NC(=O)N4c2cccc(-c3ccccc3)c2)C1 [Example 587, (R)-5-([1,1′-Biphenyl]-3-yl)-N-(1-methylpyrrolidin-3-yl)-4-oxo-4,5-dihydro-3H-1-thia-3,5,8-triazaacenaphthylene-2-carboxamide] | 
6.4 | CO[C@H]1CNC[C@@H]1NC(=O)c1sc2nccc3c2c1NC(=O)N3c1ccc(Oc2ccccc2)cc1 [Example 588, N-((3S,4S)-4-Methoxypyrrolidin-3-yl)-4-oxo-5-(4-phenoxyphenyl)-4,5-dihydro-3H-1-thia-3,5,8-triazaacenaphthylene-2-carboxamide] | 
